Earlier results as cited in publication PMC8445767 (Bioorganic Chemistry, 2021).
Where two headings read alike, the source gives them in different places.

Legend:
[1] = tested on: herpes simplex virus type 1; settings: read-out: IC50 against herpes simplex virus type 1
[2] = tested on: herpes simplex virus type 1; settings: read-out: IC50 against herpes simplex virus type 1; remark: listed apart in the source

Row | Substance | IC50 [1] [µM] | IC50 [2] [µM]
1 | Aspergilli peptide D [XI] | 9.5 | –
2 | Simplicilliumtide J [XIV] | – | 14
